Reference: US10228378B2, “Diagnostic and therapeutic methods and products related to anxiety disorders” (The University of Vermont and State Agricultural College, priority 2011, dated 2019)
Several values for one entry are separate records, joined by “and”; a condition that tells them apart may be missing. Equal values may be shown once. Entries after “also recorded” stand apart in the source; their conditions may differ. No end group written: not given here.

Assays:
[1] = tested on: Sprague-Dawley rats; assay: Novel object exploration test after chronic BNST PACAP(6-38) infusion during repeated variate stress; assay type: in vivo, rat; conditions: for effect on stress induced anxiety-related responses, novel object test: chronic BNST infusion, stressed rats
Description: (§1) Similar procedures were followed for chronic infusions. Once the BNST cannulae (Plastics One, Roanoke, Va.; No. 328OP/SPC) and skullcap were in place, the cannulae were attached to a single bifurcation connector (Plastics One, Roanoke, Va.; No. 21y) using 3 mm catheter tubing (Alzet, Cupertino, Calif.: OC 1.14 mm, ID 0.69 mm). The bifurcation connector was attached to 6.7 cm of catheter tubing attached to a mini-osmotic pump (Alzet, Cupertino, Calif.; No. 2002, 200 μl volume, 0.5 μl/h) containing either antagonist PACAP(6-38) (American Peptide Co., Sunnyvale, Calif.; 75 μM) or vehicle (0.05% BSA in saline). Long term PACAP(6-38) stability at 37° C. was assessed separately by daily aliquot removal for intact and amidated peptide radioimmunoassays. Peptide loss was 4%/day; final minipump PACAP(6-38) concentration at the end of the study was approximately 40 μM. All catheters were filled with vehicle to delay antagonist infusion into the BNST before the repeated variate stress procedure. The minipumps were primed according to manufacturer's instructions and secured subcutaneously in the interscapular space. The rats were returned to their home cages for 6 day postsurgical recovery; all rats were monitored for food/water intake and weighed daily.
Following acclimation or postsurgery recovery, each animal was randomly assigned to either a control or chronically stressed group. Control group animals remained in their home cages until euthanasia. […]
To determine whether BNST PACAP receptor signaling mediates the behavioral consequences of repeated stress, osmotic minipumps were attached to bilateral indwelling cannulae to chronically infuse the BNST with PACAP(6-38), a PAC1 receptor antagonist, during the seven day repeated variate stress procedure (see above, FIG. 13A). Animal weight and food intake were monitored daily during the entire duration of the experiment, and the animals were evaluated on the elevated plus-maze and novel-object exploration tests 24-48 hours after the last stressor exposure. […]

[2] = Body weight during chronic BNST PACAP(6-38) infusion and repeated variate stress; assay type: in vivo, rat
Description: as §1, with “The minipumps were primed according to manufacturer's instructions and secured subcutaneously in the interscapular space.” left out, “daily. […]” for “daily.”
Weight data were analyzed using a 2×2×7 mixed ANOVA with stress and antagonist treatment as between subjects variables and percent weight change during the stress period as within subjects variables. […]

[3] = Long term PACAP(6-38) stability at 37° C. by radioimmunoassay; assay type: physicochemical
Description: as §1

[4] = tested on: Sprague-Dawley rats; assay: Elevated plus-maze after chronic BNST PACAP(6-38) infusion during repeated variate stress; assay type: in vivo, rat
Description: as §1, with “All catheters were filled with vehicle to delay antagonist infusion into the BNST before the repeated variate stress procedure. The minipumps were primed according to manufacturer's instructions and secured subcutaneously in the interscapular space.” left out, “daily. […]” for “daily.”
(§2) A plus maze of black painted wood and elevated 74 cm from the floor consisted of two opposing open and two opposing closed arms (each arm 60 cm long and 9 cm wide), which extended perpendicularly from a central square platform (9×9 cm). […] The sessions were captured digitally, and the time spent in the open and closed arms and the total number of crosses into the open arms were scored. […]

[5] = Body weight after acute BNST PACAP38 infusion; assay type: in vivo, rat; conditions: 24 hours after BNST infusion
Excerpt: (§3) For acute infusion studies, rats were anesthetized with isoflurane vapor and secured in a stereotaxic apparatus. After skin incision, the skull was exposed and four screws were inserted to provide skullcap stability. Two stainless steel cannulae (26 gauge, Plastics One, Roanoke, Va.) were lowered at a 20 degree angle just above the anterolateral bed nucleus of the stria terminalis (BNST), from bregma in mm; AP=−0.3, ML=±3.8 and DV=−5.3 from the surface of the dura. A skullcap was created with dental cement to hold the cannulae in place. One week after cannulation, the rats were acutely infused bilaterally into the BNST with PACAP38 (American Peptide Co., Sunnyvale, Calif.; 0.1, 0.5 or 1 μg in 0.5 μl) or saline/bovine serum albumin (BSA) vehicle; the infusion cannulae were left in place for 1 min before removal.
(§4) To further characterize the behavioral consequences of BNST PACAP38 infusion, rats were implanted with bilateral cannulae targeted at the BNST. One week following implantation, rats received BNST infusions of PACAP38 (1 μg/0.5 μl) or vehicle, and were tested for anxiety-like responses. Consistent with an anxiogenic effect of BNST PACAP on baseline acoustic startle responding, BNST PACAP38 infusion was anxiogenic on the elevated-plus maze as measured by open arm time (FIG. 12A, df=8, t=3.3, p=0.01).

[6] = tested on: Sprague-Dawley rats; assay: Elevated plus maze after acute BNST PACAP38 infusion; assay type: in vivo, rat; conditions: BNST infusion 1 μg/0.5 μl vs vehicle
Excerpt: as §3, with “One week after cannulation, the rats were acutely infused bilaterally into the BNST with PACAP38 (American Peptide Co., Sunnyvale, Calif.; 0.1, 0.5 or 1 μg in 0.5 μl) or saline/bovine serum albumin (BSA) vehicle; the infusion cannulae were left in place for 1 min before removal.” left out
as §2
as §4, with “One week following implantation, rats received BNST infusions of PACAP38 (1 μg/0.5 μl) or vehicle, and were tested for anxiety-like responses.” left out

[7] = tested on: ADCYAP1R1 transcripts; assay: Quantitative PCR of ADCYAP1R1 transcripts in BNST of ovarectomized female rats after estradiol implants; assay type: in vivo, rat; conditions: OVX female rats, 21-day continuous release pellets, vs control implants
Excerpt: (§5) To establish the relationship between PACAP/PAC1 receptors and estrogen in a validated model of sex hormone regulation, estrogen-induced changes in ADCYAP1 and ADCYAP1R1 transcripts in the bed nucleus of stria terminalis (BNST) in female rats was examined. The BNST is a component of the extended amygdala that is subject to significant gonadal hormonal control. In rodents, it is critical for emotional behavior, mediating stress responses and the light-enhanced startle response. Quantitative PCR was performed (Hammack et al., Psychoneuroendocrinology 34, 833-43 (2009); Girard et al., J Neurochem 99(2): 499-513 (2006); Braas et al., Peptides September 28(9):1856-70 (2007)). Rats were implanted with 21-day continuous release pellets for delivery of estrogen. After rat euthanasia, the different brain regions were quickly dissected and frozen on dry ice. The tissues were homogenized in Stat-60 total RNA/mRNA isolation reagent (Tel-Test “B”, Friendswood, Tex.). […] Real-time quantitative PCR methods and oligonucleotide primers were exactly as described previously. The melting profiles for amplified DNA fragments were performed to verify unique product amplification in the quantitative PCR assays. […]

[8] = tested on: ADCYAP1 transcripts; assay: Quantitative PCR of ADCYAP1 transcripts in BNST of ovarectomized female rats after estradiol implants; assay type: in vivo, rat; conditions: OVX female rats, 21-day continuous release pellets, vs control implants
Excerpt: as §5

[9] = chronic BNST infusion by minipump (75 μM, 0.5 μl/h), stressed and non-stressed rats

Q: Which “anxiety-like behavior on novel object test” value [1, 9] does the source give for “Phe-Thr-Asp-Ser-Tyr-Ser-Arg-Tyr-Arg-Lys-Gln-Met-Ala-Val-Lys-Lys-Tyr-Leu-Ala-Ala-Val-Leu-Gly-Lys-Arg-Tyr-Lys-Gln-Arg-Val-Lys-Asn-Lys (FTDSYSRYRKQMAVKKYLAAVLGKRYKQRVKNK) [PACAP(6-38)]” here?
A: anxiolytic

Q: And the “effect on stress induced anxiety-related responses, novel object test” value [1]?
A: reverse the anxiogenic effect of stress

Q: What about the “effect on stress induced anxiety-related responses, novel object test” value ([1]; listed as PACAP receptor antagonist) of the same compound?
A: attenuated the stress induced anxiety-related responses

Q: What about the “effect on body weight, non-stressed rats” value ([2]; chronic BNST infusion, no stress) of the same compound?
A: no apparent effects; also recorded: gained weight steadily

Q: What about the “effect on weight gain, stressed rats” value ([2]; continuous BNST infusion during seven day repeated variate stress) of the same compound?
A: blocked the stress-induced changes in weight gain; also recorded: gained weight comparable to controls

Q: And the Peptide loss ([3]; intact and amidated peptide radioimmunoassays)?
A: 4 %/day

Q: What about the “final minipump concentration at the end of the study” value ([3]; start 75 μM) of the same compound?
A: approximately 40 μM

Q: And the “anxiety-like behavior on elevated plus maze” value [4, 9]?
A: anxiolytic

Q: What about the “effect on stress induced anxiety-related responses, elevated plus-maze” value ([4]; chronic BNST infusion, stressed rats) of the same compound?
A: attenuated the stress induced anxiety-related responses

Q: What does the source list for “PACAP38: 38-amino acid peptide form of PACAP (American Peptide Co.) (HSDGIFTDSYSRYRKQMAVKKYLAAVLGKRYKQRVKNK; ends and bridges not checked)”?
A: weight loss compared to vehicle-infused rats [5]: significantly more weight loss; weight loss ([5]; compared to vehicle controls): approximately 8 % of body weight; anxiety-like behavior on elevated-plus maze as measured by open arm time [6]: anxiogenic; also recorded: decreased open arm times; locomotor activity as measured by total number of arm entries [6]: not affected; also recorded: not changed

Q: Which “increase of ADCYAP1R1 mRNA, dorsal BNST” value [7] does the source give for C[C@]12CC[C@@H]3c4ccc(O)cc4CC[C@H]3[C@@H]1CC[C@@H]2O [estradiol] here?
A: 1.5 fold and 1.6 fold

Q: What about the “increase of ADCYAP1 transcripts, dorsal BNST” value [8] of the same compound?
A: 2.1 fold

Q: What about the “increase of ADCYAP1 transcripts, ventral BNST” value [8] of the same compound?
A: 3.4 fold
